Test results taken from patent publication US4863944A, “Dopamine-β-hydroxylase inhibitors” (SmithKline Beckman Corporation, priority 1988, dated 1989).
Structures can show the parent of a compound that is named as a salt. Values belong to the compound of their own block, whether it stands above or below them.

What was measured:
[1] = system: DBH; conditions: treated patients; Friedman et al.; significance uncertain; cited from earlier work
[2] = biological target: T1, dopamine-β-hydroxylase (DBH) (Bos taurus, UniProt P15101); test: biochemical; conditions: in vitro; tyramine to octopamine; absorbance at 330 nm; read-out: IC50 (molar concentration of compound at which DBH activity was halved)
T1 sequence (P15101 1-610): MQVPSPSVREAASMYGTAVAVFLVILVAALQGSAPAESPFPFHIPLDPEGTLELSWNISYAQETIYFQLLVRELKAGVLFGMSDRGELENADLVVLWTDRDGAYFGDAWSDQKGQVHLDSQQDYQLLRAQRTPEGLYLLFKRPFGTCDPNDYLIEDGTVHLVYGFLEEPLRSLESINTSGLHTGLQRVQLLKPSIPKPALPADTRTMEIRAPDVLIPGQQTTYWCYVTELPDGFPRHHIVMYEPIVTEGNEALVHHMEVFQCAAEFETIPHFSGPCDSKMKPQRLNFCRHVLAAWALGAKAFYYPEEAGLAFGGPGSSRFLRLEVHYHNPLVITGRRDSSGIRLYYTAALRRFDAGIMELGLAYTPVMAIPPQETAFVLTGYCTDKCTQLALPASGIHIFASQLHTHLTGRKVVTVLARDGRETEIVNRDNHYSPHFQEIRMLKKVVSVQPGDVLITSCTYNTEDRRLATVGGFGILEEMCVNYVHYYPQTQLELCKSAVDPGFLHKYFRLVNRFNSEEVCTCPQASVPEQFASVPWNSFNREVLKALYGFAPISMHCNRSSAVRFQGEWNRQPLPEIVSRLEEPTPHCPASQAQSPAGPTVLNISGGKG
Protocol: Octopamine was assayed following sodium periodate oxidation to p-hydroxybenzaldehyde by measuring spectrophotometric absorbance at 330 nm. […] Melting points (mp) are given in °C.

[3] = system: spontaneously hypertensive rats; test: in vivo activity in spontaneously hypertensive rats: electrolyte excretion, urine volume, systolic blood pressure, heart rate; design: species or system rats (Okamoto-Aoki strain spontaneously hypertensive); conditions: for Heart Rate 1st dose / Systolic Blood Pressure 1st dose: after 1st dose; for Heart Rate 1st dose / Systolic Blood Pressure 1st dose / Heart Rate 2nd dose / Systolic Blood Pressure 2nd dose: tail-cuff; for Heart Rate 2nd dose / Systolic Blood Pressure 2nd dose: two hours after 2nd dose; for Electrolytes Excreted K^+ / Electrolytes Excreted Na^+ / Urine Volume: urine collected for three hours
Excerpt: The following procedure was used to test, for in vivo activity, compounds which can be used to inhibit DBH activity in mammals, including certain illustrative compounds of the invention. The compounds wherein R is --CO2 H or --CH2 NHC6 H5, X is --H, Y is --H and n is 1 are not compounds of the invention but can be used in the method of the invention.
Male, Okamoto-Aoki strain spontaneously hypertensive rats, aged 16-20 weeks, were used for testing. The afternoon before testing, the animals were fasted and the following morning the first dose of the test compound was administered, p.o., along with a 25 ml/kg load of normal saline. The animals were then placed in metabolism cages, three per cage, and urine was collected for three hours and subsequently analyzed for sodium, potassium, and creatinine. Indirect systolic blood pressure and heart rate were measured via a tail-cuff method and the animals received an identical second does of the test compound. Two hours after the second dose, the systolic blood pressure and heart rate were again determined. Drugs were administered as a solution or suspension in normal saline with 0.02% ascorbic acid.
Three rats weighing 270-320 g were used. Each received two intraperitoneal injections, in a 24 hour period, of a dose volume of 5 mL and a dose concentration of 50 mg/kg or 25 mg/kg, in 0.9% NaCl, following a 24 hour pretreatment dose. Averaged results with control animals, three per experiment, are reported in parentheses below results of test animals.

[4] = system: DBH; conditions: cited from earlier work; for DBH inhibition / mode of DBH inhibition: result in words
[5] = result in words; cited from earlier work
[6] = at certain concentrations; Ehrreich et al.; cited from earlier work
[7] = result in words; Teresawa et al.; cited from earlier work

SMILES: CC(C)NCC(O)COc1cccc2ccccc12 (racemic) [propanolanol]
- DBH levels [1]: not

- IC50 [2]: > 100 µM
SMILES: Br.Br.Oc1ccc(Cn2ccnc2CNc2ccccc2)cc1 [1-(4-hydroxybenzyl)-2-phenylaminomethyl imidazole dihydrobromide]
- Na^+ /K^+ ratio ([3]; dose = 50 mg/kg): 2.927
- Heart Rate 1st dose ([3]; dose = 50 mg/kg): 440 beats/min
- Systolic Blood Pressure 1st dose ([3]; dose = 50 mg/kg): 181 mmHg
- Heart Rate 2nd dose ([3]; dose = 50 mg/kg): 480 beats/min
- Systolic Blood Pressure 2nd dose ([3]; dose = 50 mg/kg): 175 mmHg
- Electrolytes Excreted K^+ ([3]; dose = 50 mg/kg): 74.27 μEq/rat
- Electrolytes Excreted Na^+ ([3]; dose = 50 mg/kg): 217.36 μEq/rat
- Urine Volume ([3]; dose = 50 mg/kg): 3 ml/rat
- in vivo activity as cardiotonic ([3]; result in words): significant cardiotonic activity

- IC50 [2]: 100 µM
SMILES: c1ccc(CNCc2nccn2Cc2ccccc2)cc1 [1-benzyl-2-benzylaminomethyl imidazole dihydrochloride]

SMILES: O=C(O)c1ccc(CCC(Br)CBr)cn1 (centres unmarked) [5-(3,4-dibromo)butyl picolinic acid]
- DBH inhibition [4]: DBH inhibitors

SMILES: O=C(O)c1ccc(CCCCCl)cn1 [5-(4-chlorobutyl)picolinic acid]
- DBH inhibition [4]: can inhibit DBH

SMILES: CN(C)C(=S)SCc1ccc(C(=O)O)nc1 [5-(dimethyldithiocarbamoyl)methyl picolinic acid]
- DBH inhibition [4]: DBH inhibitors

SMILES: NOCc1ccccc1 [Benzyloxyamine, benzyloxyamine]
- mode of DBH inhibition [4]: apparently act as competitive inhibitors

SMILES: CCCCc1ccc(C(N)=O)nc1 [Bupicomide, 5-(n-butyl)picolinamide]
- antihypertensive activity [5]: antihypertensive activity
- DBH inhibition [4]: DBH inhibitor

SMILES: NCCc1ccc(O)c(O)c1 [DA, dopamine]
- vasodilator activity [6]: selective vasodilator activity at certain concentrations

SMILES: CCCCc1ccc(C(=O)O)nc1 [Fusaric acid]
- hepatotoxicity [7]: hepatotoxic

- IC50 [2]: 35 µM
SMILES: Br.Br.NCc1nccn1Cc1ccc(O)cc1 [R = CH2 NH2.2HBr, Y = OH, X = H, n = 1, 1-(4-hydroxybenzyl)-2-aminomethyl imidazole dihydrobromide]
- Na^+ /K^+ ratio ([3]; dose = 25 mg/kg): 2.159
- Heart Rate 1st dose ([3]; dose = 25 mg/kg): 420 beats/min
- Systolic Blood Pressure 1st dose ([3]; dose = 25 mg/kg): 161 mmHg
- Heart Rate 2nd dose ([3]; dose = 25 mg/kg): 440 beats/min
- Systolic Blood Pressure 2nd dose ([3]; dose = 25 mg/kg): 158 mmHg
- Electrolytes Excreted K^+ ([3]; dose = 25 mg/kg): 103.42 μEq/rat
- Electrolytes Excreted Na^+ ([3]; dose = 25 mg/kg): 223.24 μEq/rat
- Urine Volume ([3]; dose = 25 mg/kg): 3 ml/rat
- in vivo activity as antihypertensive ([3]; result in words): significant antihypertensive activity

SMILES: NCc1nccn1Cc1ccccc1 [R = CH2 NH2.2HCl, Y = H, X = H, n = 1, 1-benzyl-2-aminomethyl imidazole dihydrochloride]
- IC50 [2]: 240 µM

- IC50 [2]: 70 µM
SMILES: O=C(O)c1nccn1CCCc1ccc(O)cc1 [R = CO2 H.1/2 H2 O, Y = OH, X = H, n = 3, 1-[3-(4-hydroxyphenyl)propyl]imidazole-2-carboxylic acid, hemihydrate]
- Na^+ /K^+ ratio ([3]; dose = 25 mg/kg): 1.313
- Heart Rate 1st dose ([3]; dose = 25 mg/kg): 400 beats/min
- Systolic Blood Pressure 1st dose ([3]; dose = 25 mg/kg): 176 mmHg
- Heart Rate 2nd dose ([3]; dose = 25 mg/kg): 440 beats/min
- Systolic Blood Pressure 2nd dose ([3]; dose = 25 mg/kg): 173 mmHg
- Electrolytes Excreted K^+ ([3]; dose = 25 mg/kg): 152.18 μEq/rat
- Electrolytes Excreted Na^+ ([3]; dose = 25 mg/kg): 199.74 μEq/rat
- Urine Volume ([3]; dose = 25 mg/kg): 6 ml/rat
- in vivo activity as diuretic ([3]; result in words): significant diuretic activity

- IC50 [2]: 11 µM
SMILES: O=C(O)c1nccn1Cc1ccccc1 [R = CO2 H.HCl, Y = H, X = H, n = 1]
- Na^+ /K^+ ratio ([3]; dose = 50 mg/kg): 1.270
- Heart Rate 1st dose ([3]; dose = 50 mg/kg): 440 beats/min
- Systolic Blood Pressure 1st dose ([3]; dose = 50 mg/kg): 211 mmHg
- Heart Rate 2nd dose ([3]; dose = 50 mg/kg): 480 beats/min
- Systolic Blood Pressure 2nd dose ([3]; dose = 50 mg/kg): 185 mmHg
- Electrolytes Excreted K^+ ([3]; dose = 50 mg/kg): 214.52 μEq/rat
- Electrolytes Excreted Na^+ ([3]; dose = 50 mg/kg): 272.54 μEq/rat
- Urine Volume ([3]; dose = 50 mg/kg): 15 ml/rat
- in vivo activity as antihypertensive ([3]; result in words): significant in vivo activity
- in vivo activity as cardiotonic ([3]; result in words): significant in vivo activity
- in vivo activity as diuretic ([3]; result in words): significant in vivo activity
- in vivo activity as natriuretic ([3]; result in words): significant in vivo activity

- IC50 [2]: 75 µM
SMILES: COc1ccc(Cn2ccnc2C(=O)O)cc1 [R = CO2 H.HCl, Y = OCH3, X = H, n = 1, 1-(4-methoxybenzyl)imidazole-2-carboxylic acid hydrochloride]

- IC50 [2]: 95 µM
SMILES: COc1ccc(CCCn2ccnc2C(=O)O)cc1 [R = CO2 H.HCl, Y = OCH3, X = H, n = 3, 1-[3-(4-methoxyphenyl)propyl]imidazole-2-carboxylic acid hydrochloride]

- IC50 [2]: 90 µM
SMILES: O=C(O)c1nccn1Cc1ccc(O)cc1 [R = CO2 H.HCl, Y = OH, X = H, n = 1, hydrochloride hydrate]

SMILES: CC(N)(Cc1ccc(O)c(O)c1)C(=O)O (stereo not drawn) [alpha-methyl-DOPA]
- DBH levels [1]: lowered DBH levels

SMILES: NNCc1ccccc1 [benzylhydrazine]
- mode of DBH inhibition [4]: apparently act as competitive inhibitors

SMILES: O=C(O)c1ccc(Cc2ccc(O)cc2)cn1 [phenopicolinic acid]
- DBH inhibitory activity relative to fusaric acid ([4]; Runti et al.): twice the inhibitory activity of fusaric acid
- DBH inhibition [4]: can inhibit DBH

SMILES: COC(=O)[C@H]1[C@H]2C[C@@H]3c4[nH]c5cc(OC)ccc5c4CCN3C[C@H]2C[C@@H](OC(=O)c2cc(OC)c(OC)c(OC)c2)[C@@H]1OC [reserpine]
- DBH levels [1]: lowered DBH levels
